Assay results as given in patent US5364615A (priority 1992, dated 1994).
Values joined by “and” are separate entries in the source; they are usually repeats but may differ in a detail not shown here. Equal values may be shown once. Read-outs that look alike come from different tables or passages of the source.

Experiments:
Pneumocystis carinii [1] = experiment: Post-exposure prophylaxis of PCP (Example 5); type: in vivo, human; details: for Percent Alive & Free of Relapse: 300 mg once per month
Source text: Within 30 days of initiation of prophylaxis, ten patients were omitted due to treatment (9) or relapse (1). Of the 93 patients, 48 had had at least one previous episode of PCP. Two-thirds of the patients were taking AZT at the onset and throughout the duration of the post-exposure prophylaxis. The median and maximum duration of treatment at the time of analysis was 3.1 and 5.2 months.

Pneumocystis carinii [2] = details: cited from earlier work
Pneumocystis carinii [3] = type: in vivo, human
[4] = Toxicity during PCP treatment (Example 1)
Pneumocystis carinii [5] = experiment: Randomized trial 300 mg twice per month vs 600 mg once per month (Example 7); type: in vivo, human
Source text: (§1) Five patients who developed PCP within 28 days were not evaluated. One hundred (66%) of the patients were concurrently receiving AZT, and 42 (28%) had experienced one prior episode of PCP.

clinical = details: human, serum, inhaled or intranasal, 300 mg
Description: Adult patients having or suspected of having AIDS, and who were hospitalized for a fiberoptic bronchoscopy to evaluate diffuse infiltrates on chest radiographs, were studied. The patients were divided into two groups. […] Two patients had received one dose and the other three doses.
Eighteen to 24 hours later both groups underwent fiberoptic bronchoscopy. After inspection of the airways, 3-5 aliquots (20 mL) of normal saline were injected and aspirated from the right middle lobe until at least 40 mL was recovered: C. […] Lavage fluid was centrifuged at 1,000×g for 10 min at 10° C. […] Briefly, proteins were precipitated with acetonitrile containing hexamidine as an internal standard. […] The lower limit of sensitivity of the assay was 2-3 ng/mL. Two sample t-test was used to compare groups: p values of <0.05 were regarded as significant.

[6] = type: in vivo, human
Source text: as §1

[7] = single 4 mg/kg intravenous dose, AIDS patients with P. carinii; cited from earlier work
[8] = Serum pentamidine concentrations (Example 3); type: in vivo, human; details: aerosol
[9] = cited from earlier work
[10] = human, in vivo
Source text: Chest radiographs and arterial blood gas tensions were obtained as clinically indicated.

[11] = Aerosol particle size of pentamidine; type: physicochemical; details: for particle size (MMAD): Respirgard II
Source text: A compressed oxygen (5-7 L/min at 345 kPa, 50 psi) powered nebulizer produces the aerosol and one-way valves provide for entrainment of room air in patients whose minute ventilation is high, act as a baffle to decrease particle size, and direct expired air to a filter which removes the remaining particles of drug thereby preventing environmental contamination.
Particles were sized with a 7 stage Mercer cascade impactor (Intox Products, Albuquerque, N. Mex.). The gas supply was 6 L/min, the sample stream was not dried, and the impactor flow rates were 0.5 L/min. […] Results from the average of three determinations at each location were expressed as mass median aerodynamic diameter ±geometric standard deviation (MMAD±GSD). Raabe, J Aerosol Sci (1971) Z:289-303.

Pneumocystis carinii [12] = experiment: Prevention of PCP, different dosages and regimens (Example 6); type: in vivo, human
Source text: A total of 438 participants were selected on the basis of seropositivity for HIV, and were stratified on the basis of (i) prior PCP (n=250), (ii) Kaposi's sarcoma (n=59), or (iii) ARC (n=129).

[13] = 13 patients treated successfully
[14] = intravenous 4 mg/Kg, 18-24 h, per patient, 4 mg/kg
[15] = distal to the nebulizer (point A)

Q: Which results are given for N=C(N)c1ccc(OCCCCCOc2ccc(C(=N)N)cc2)cc1 [pentamidine, p,p'-(pentamethylenedioxy)dibenzamidine]?
A: reduction in the incidence of PCP (Pneumocystis carinii [1]; 300 mg by inhalation once monthly, based on historical controls): 5 fold; Percent Alive & Free of Relapse (Pneumocystis carinii [1]; 0.0 months): 100.0%; Percent Alive & Free of Relapse (Pneumocystis carinii [1]; 2.3 months): 98.57%; Percent Alive & Free of Relapse (Pneumocystis carinii [1]; 2.5 months): 97.12%; Percent Alive & Free of Relapse (Pneumocystis carinii [1]; 2.9 months): 95.53%; Percent Alive & Free of Relapse (Pneumocystis carinii [1]; 3.0 months): 93.85%; Percent Alive & Free of Relapse (Pneumocystis carinii [1]; 3.1 months): 92.08%; Percent Alive & Free of Relapse (Pneumocystis carinii [1]; 3.7 months): 89.78%; Percent Alive & Free of Relapse (Pneumocystis carinii [1]; 5.2 months): 79.81%; delay of relapse (Pneumocystis carinii [1]; single prior episode of PCP): at least 5 months; observed PCP cases (Pneumocystis carinii [1]; single prior episode, vs 10 based on 132 historical controls, p<0.01): 3; Pre therapy DLCO (Pneumocystis carinii [2]; baseline, literature): 59.0 percent predicted; Pre therapy PaO2 (Pneumocystis carinii [2]; baseline, literature): 69.3 torr; Pre therapy Vital Capacity (Pneumocystis carinii [2]; baseline, literature): 70 percent predicted; Successful Treatment W/ Change, % (Pneumocystis carinii [2]; literature): 95%; Successful Treatment w/o Change, % (Pneumocystis carinii [2]; literature): 40%; Post therapy PaO2 (Pneumocystis carinii [2]; post therapy, literature (TMP-DPS: only 8 patients tested)): 87.2 torr; Post therapy DLCO (Pneumocystis carinii [2]; post therapy, literature): 62 percent predicted; Post therapy Vital Capacity (Pneumocystis carinii [2]; post therapy, literature): 80 percent predicted; relapse (Pneumocystis carinii [3]; 13 patients followed 2-4 months): No patient presented evidence of relapse; arterial oxygenation and vital capacity (Pneumocystis carinii [3]; [13]): Eleven of the 13 patients showed improvements of their arterial oxygenation and vital capacity; dyspnea, respiratory rate and fever (Pneumocystis carinii [3]; [13]): marked reduction in dyspnea, respiratory rate and fever; radiographic improvement (Pneumocystis carinii [3]; [13]): 4 had radiographic improvement beginning by the second week of therapy and Five patients showed worsened radiographic infiltrates at one week with subsequent improvement and remaining 4 patients had worsened radiographic infiltrates or no improvement for the first two weeks of therapy, then improvement; overall efficacy rate (Pneumocystis carinii [3]; 95% confidence limits, 58% to 98%): 87%; Pre therapy DLCO (Pneumocystis carinii [3]; baseline): 64.9 percent predicted; Pre therapy PaO2 (Pneumocystis carinii [3]; baseline): 67.9 torr; Pre therapy Vital Capacity (Pneumocystis carinii [3]; baseline): 50.8 percent predicted; subjective and objective improvement (Pneumocystis carinii [3]; human, in vivo): Thirteen of 15 patients had subjective and objective improvement; time of clinical improvement (Pneumocystis carinii [3]; human, in vivo): Ten patients had clinical improvement in the first week of therapy, and 3 patients during the second week of therapy; Successful Treatment W/ Change, % (Pneumocystis carinii [3]; n = 15): 93%; Successful Treatment w/o Change, % (Pneumocystis carinii [3]; n = 15): 86%; treatment failure / death (Pneumocystis carinii [3]; one patient with concomitant tuberculosis therapy, changed to TMP-SMX on day 7): died of progressive respiratory failure; Post therapy DLCO (Pneumocystis carinii [3]; post therapy): 61.7 percent predicted; Post therapy PaO2 (Pneumocystis carinii [3]; post therapy): 80.1 torr; Post therapy Vital Capacity (Pneumocystis carinii [3]; post therapy): 61.8 percent predicted; glucose ([4]; approximately 165 determinations): > 3.9 mmol/L; minor toxicity ([4]; inhalation): One inhalation patient (16) experienced minor toxicity (rash); major toxicity ([4]; inhalation, two of ten evaluable (neutropenia; both also received AZT)): 20%; minor toxicity ([4]; intravenous, elevated serum creatinine in three, depressed leukocyte count in one): occurred in four iv-treated patients; leukocyte count ([4]; intravenous, patient 18 after ten days): 6e+08 L⁻¹; major toxicity ([4]; intravenous, two of nine (neutropenia, hepatotoxicity)): 22%; change of therapy due to toxicity ([4]; iv-treated patients, two of 19 evaluated as printed): 11%; attack rate of PCP at 6.38 months (Pneumocystis carinii [5]; 300 mg once per month, previous study): 18%; attack rate of PCP (Pneumocystis carinii [5]; 300 mg twice per month): 5.6%; attack rate of PCP (Pneumocystis carinii [5]; 600 mg once per month): 8.1%; patients who developed PCP (Pneumocystis carinii [5]; mean duration 10.6 months, 10 patients): 6.8%; attack rate of PCP at 6.38 months (Pneumocystis carinii [5]; this trial, p<0.01 vs 300 mg once per month): 3%; concentration at 0.5 h (clinical): 13 ng/mL; BAL sediment concentration, aerosol vs intravenous (18-24 h): 10-100 fold; mean BAL supernatant (aerosol) vs BAL sediment (intravenous), factor (18-24 h): more than 2; BAL sediment concentration, Mean ± SEM (aerosol 300 mg, 18-24 h): 705 ± 242 ng/mL; BAL supernatant concentration, Mean ± SEM (aerosol 300 mg, 18-24 h): 23.2 ± 7.75 ng/mL; systemic absorption (after aerosol administration): Little or no systemic absorption was detectable; BAL sediment concentration, Mean ± SEM (intravenous 4 mg/Kg, 18-24 h): 9.34 ± 1.74 ng/mL; BAL supernatant concentration, Mean ± SEM (intravenous 4 mg/Kg, 18-24 h): 2.64 ± 0.73 ng/mL; BAL sediment concentration [14]: 12.8 ng/mL and 6.89 ng/mL and 8.35 ng/mL; BAL supernatant concentration [14]: 1.48 ng/mL and 2.44 ng/mL and 4.0 ng/mL; response to standard therapy (patients infected with P. carinii, either intravenous pentamidine or TMP-SMX): All patients infected with P. carinii responded to standard therapy; deaths associated with PCP ([6]; 3 of 146): 2%; deaths due to other causes ([6]; 9 of 146): 6%; patients died ([6]; twelve of 146 evaluable): 8%; mean peak serum pentamidine concentration [7]: 612 ng/mL; serum pentamidine concentration ([8]; 2 patients at end of therapy): 22 ng/mL and 32 ng/mL; serum pentamidine concentration ([8]; 12/14 patients): less than 10 ng/mL; patients developing severe toxicity requiring discontinuation ([9]; TMP-SMX oral/parenteral or pentamidine isethionate parenteral): approximately 50%; side effects ([9]; parenteral pentamidine): elevation of liver enzymes, hematologic disturbances with neutropenia and thrombocytopenia, fever, hypocalcemia, and hallucinations; impaired renal function ([9]; patients receiving (parenteral) pentamidine): about 25%; severe adverse reactions [10]: No patient developed any severe adverse reactions; particle size (MMAD ± GSD) ([11]; Example 3, nebulizer of Example 2, 600 mg in 6 mL): 1.42±1.88 μm; mass of particles larger than 4 μm ([11]; at the mouthpiece (point B)): less than 5%; particle size (MMAD) ([11]; at the mouthpiece (point B)): 1.42 μm; mass of particles larger than 4 μm [11, 15]: greater than 20%; particle size (MMAD) [11, 15]: 2.38 μm; pentamidine distal to the exhalation filter ([11]; point C): No pentamidine was found distal to the exhalation filter; mortality rate (Pneumocystis carinii [12]; 372 participants): 1.6%; relapse rate (Pneumocystis carinii [12]; 372 participants, at least one treatment): 4.6%; deaths due to PCP (Pneumocystis carinii [12]; ARC, group a, 30 mg): 1; PCP Events (Pneumocystis carinii [12]; ARC, group a, 30 mg every two weeks): 2; PCP Events (Pneumocystis carinii [12]; ARC, group b, 150 mg every two weeks): 0; PCP Events (Pneumocystis carinii [12]; ARC, group c, 300 mg every four weeks): 0; PCP Events (Pneumocystis carinii [12]; Kaposi's, group a, 30 mg every two weeks): 0; PCP Events (Pneumocystis carinii [12]; Kaposi's, group b, 150 mg every two weeks): 1; PCP Events (Pneumocystis carinii [12]; Kaposi's, group c, 300 mg every four weeks): 0; relapse rate (Pneumocystis carinii [12]; at least three treatments): 3.2%; participants experiencing relapse (Pneumocystis carinii [12]; of 372 participants): 17; relapse rate (Pneumocystis carinii [12]; prior PCP, at least one treatment, historical controls 24.3%): 5.9%; relapse rate (Pneumocystis carinii [12]; prior PCP, three or more treatments): 4.2%; deaths due to PCP (Pneumocystis carinii [12]; prior PCP, group a, 30 mg): 1; PCP Events (Pneumocystis carinii [12]; prior PCP, group a, 30 mg every two weeks): 6; deaths due to PCP (Pneumocystis carinii [12]; prior PCP, group b, 150 mg): 3; PCP Events (Pneumocystis carinii [12]; prior PCP, group b, 150 mg every two weeks): 5; deaths due to PCP (Pneumocystis carinii [12]; prior PCP, group c, 300 mg): 1; PCP Events (Pneumocystis carinii [12]; prior PCP, group c, 300 mg every four weeks): 3
